Reference: patent US12496348B2, “Small molecule target bromo/acetyl proteins and uses thereof” (DANA-FARBER CANCER INSTITUTE, INC., priority 2019, dated 2025)

Columns and labels:
CBP bromodomain = CBP bromodomain (Homo sapiens (Human), UniProt Q92793); assay: CBP (Bromodomain) AlphaScreen Assay; assay type: binding; conditions: FIG. 6
Protocol: Assays were performed with minimal modifications from the manufacturer's protocol (PerkinElmer®, USA). All reagents were diluted in 50 mM 4-(2-hydroxyethyl)-1-piperazineethanesulfonic acid (HEPES), 150 mM NaCl, 0.1% w/v bovine serum albumin (BSA), 0.01% w/v Tween® 20, pH 7.5 and allowed to equilibrate to room temperature prior to addition to plates. After addition of AlphaScreen® acceptor beads to master solutions, all subsequent steps were performed under low light conditions. […] Plates were spun down at 150×g, 100 nL of compound in dimethyl sulfoxide (DMSO) from stock plates were added by pin transfer using a Janus® Workstation (PerkinElmer®, USA). The streptavidin-coated donor beads (10 ng/ml final) were added as with previous the solution in a 2×10 μL volume. Following this addition, plates were sealed with foil to prevent light exposure and evaporation. The plates were spun down again at 150×g.

[1] = test system: Kelly Neuroblastoma cells; assay: Western blot experiment, cytotoxicity observed in Kelly NB cells; assay type: cell-based; conditions: 24 hours
Protocol: (§1) Kelly Neuroblastoma cells were seeded at 1,000,000 cells per well in 6 well plates and were treated in a dose-dependent manner for 24 hours. Whole cell lysates were collected using ice cold lysis buffer [300 mM NaCl, 50 mM Tris-HCl, pH 7.5, 0.5% Triton X-100, 1% sodium dodecyl sulfate (SDS), 1 mM dithiothreitol (DTT) (Invitrogen™), Roche®'s cOmplete™ protease inhibitor cocktail (1:000), 25 units/mL Benzonase®] and blotted at a protein concentration of 30 μg for EP300 and CBP and 10 μg for histone H3 and H3K27ac. Lysates were also blotted for bromodomain-containing protein 4 (BRD4). Lysates were resolved in NuPAGE™ 3-8% Tris-Acetate polyacrylamide gels (EA03785BOX, Invitrogen™) for EP300 and CBP and Bolt 4-12% Bis-Tris polyacrylamide gels (NW04125BOX, Invitrogen™) for H3 and H3K27ac. Afterwards, gels were transferred to nitrocellulose membranes (LC2001, Invitrogen™). […] Visualization was performed on an Odyssey infrared imaging system (LiCor® Biosciences).

CBP = CBP (Homo sapiens (Human), UniProt Q92793); assay: Western blot for CBP degradation in Kelly NB cells; assay type: cell-based; conditions: 8 and 16 hours, at 3 μM
Protocol: as §1, with “Kelly Neuroblastoma cells were seeded at 1,000,000 cells per well in 6 well plates and were treated in a dose-dependent manner for 24 hours.” left out

BRD2/3/4 = assay: Western blot, selectivity against BRD2/3/4 in Kelly NB cells; assay type: cell-based; conditions: 8 and 16 hours
Protocol: […] Whole cell lysates were collected using ice cold lysis buffer [300 mM NaCl, 50 mM Tris-HCl, pH 7.5, 0.5% Triton X-100, 1% sodium dodecyl sulfate (SDS), 1 mM dithiothreitol (DTT) (Invitrogen™), Roche®'s cOmplete™ protease inhibitor cocktail (1:000), 25 units/mL Benzonase®] and blotted at a protein concentration of 30 μg for EP300 and CBP and 10 μg for histone H3 and H3K27ac. Lysates were also blotted for bromodomain-containing protein 4 (BRD4). Lysates were resolved in NuPAGE™ 3-8% Tris-Acetate polyacrylamide gels (EA03785BOX, Invitrogen™) for EP300 and CBP and Bolt 4-12% Bis-Tris polyacrylamide gels (NW04125BOX, Invitrogen™) for H3 and H3K27ac. Afterwards, gels were transferred to nitrocellulose membranes (LC2001, Invitrogen™). Primary and secondary antibodies used included anti-p300 at 1:500 dilution (ab10485, Abcam®), anti-CBP at 1:500 dilution (D6C5, Cell Signaling Technology®), anti-Actin at 1:5000 dilution (3700S, Cell Signaling Technology®), anti-H3 at 1:1000 dilution (4499S, Cell Signaling Technology®), anti-H3K27ac at 1:1000 dilution (ab4729, Abcam®), IRDye®800 goat anti-rabbit at 1:5000 dilution (926-32211, LiCor® Biosciences) and IRDye®680 goat anti-mouse at 1:5000 dilution (926-68070, LiCor®). Visualization was performed on an Odyssey infrared imaging system (LiCor® Biosciences).

EP300 = EP300 (Homo sapiens (Human), UniProt Q09472); assay: Western blot for EP300 degradation in Kelly NB cells; assay type: cell-based; conditions: 8 and 16 hours, at 3 μM
Protocol: as §1, with “Kelly Neuroblastoma cells were seeded at 1,000,000 cells per well in 6 well plates and were treated in a dose-dependent manner for 24 hours.” left out

EP300, sequence (Q09472 whole entry): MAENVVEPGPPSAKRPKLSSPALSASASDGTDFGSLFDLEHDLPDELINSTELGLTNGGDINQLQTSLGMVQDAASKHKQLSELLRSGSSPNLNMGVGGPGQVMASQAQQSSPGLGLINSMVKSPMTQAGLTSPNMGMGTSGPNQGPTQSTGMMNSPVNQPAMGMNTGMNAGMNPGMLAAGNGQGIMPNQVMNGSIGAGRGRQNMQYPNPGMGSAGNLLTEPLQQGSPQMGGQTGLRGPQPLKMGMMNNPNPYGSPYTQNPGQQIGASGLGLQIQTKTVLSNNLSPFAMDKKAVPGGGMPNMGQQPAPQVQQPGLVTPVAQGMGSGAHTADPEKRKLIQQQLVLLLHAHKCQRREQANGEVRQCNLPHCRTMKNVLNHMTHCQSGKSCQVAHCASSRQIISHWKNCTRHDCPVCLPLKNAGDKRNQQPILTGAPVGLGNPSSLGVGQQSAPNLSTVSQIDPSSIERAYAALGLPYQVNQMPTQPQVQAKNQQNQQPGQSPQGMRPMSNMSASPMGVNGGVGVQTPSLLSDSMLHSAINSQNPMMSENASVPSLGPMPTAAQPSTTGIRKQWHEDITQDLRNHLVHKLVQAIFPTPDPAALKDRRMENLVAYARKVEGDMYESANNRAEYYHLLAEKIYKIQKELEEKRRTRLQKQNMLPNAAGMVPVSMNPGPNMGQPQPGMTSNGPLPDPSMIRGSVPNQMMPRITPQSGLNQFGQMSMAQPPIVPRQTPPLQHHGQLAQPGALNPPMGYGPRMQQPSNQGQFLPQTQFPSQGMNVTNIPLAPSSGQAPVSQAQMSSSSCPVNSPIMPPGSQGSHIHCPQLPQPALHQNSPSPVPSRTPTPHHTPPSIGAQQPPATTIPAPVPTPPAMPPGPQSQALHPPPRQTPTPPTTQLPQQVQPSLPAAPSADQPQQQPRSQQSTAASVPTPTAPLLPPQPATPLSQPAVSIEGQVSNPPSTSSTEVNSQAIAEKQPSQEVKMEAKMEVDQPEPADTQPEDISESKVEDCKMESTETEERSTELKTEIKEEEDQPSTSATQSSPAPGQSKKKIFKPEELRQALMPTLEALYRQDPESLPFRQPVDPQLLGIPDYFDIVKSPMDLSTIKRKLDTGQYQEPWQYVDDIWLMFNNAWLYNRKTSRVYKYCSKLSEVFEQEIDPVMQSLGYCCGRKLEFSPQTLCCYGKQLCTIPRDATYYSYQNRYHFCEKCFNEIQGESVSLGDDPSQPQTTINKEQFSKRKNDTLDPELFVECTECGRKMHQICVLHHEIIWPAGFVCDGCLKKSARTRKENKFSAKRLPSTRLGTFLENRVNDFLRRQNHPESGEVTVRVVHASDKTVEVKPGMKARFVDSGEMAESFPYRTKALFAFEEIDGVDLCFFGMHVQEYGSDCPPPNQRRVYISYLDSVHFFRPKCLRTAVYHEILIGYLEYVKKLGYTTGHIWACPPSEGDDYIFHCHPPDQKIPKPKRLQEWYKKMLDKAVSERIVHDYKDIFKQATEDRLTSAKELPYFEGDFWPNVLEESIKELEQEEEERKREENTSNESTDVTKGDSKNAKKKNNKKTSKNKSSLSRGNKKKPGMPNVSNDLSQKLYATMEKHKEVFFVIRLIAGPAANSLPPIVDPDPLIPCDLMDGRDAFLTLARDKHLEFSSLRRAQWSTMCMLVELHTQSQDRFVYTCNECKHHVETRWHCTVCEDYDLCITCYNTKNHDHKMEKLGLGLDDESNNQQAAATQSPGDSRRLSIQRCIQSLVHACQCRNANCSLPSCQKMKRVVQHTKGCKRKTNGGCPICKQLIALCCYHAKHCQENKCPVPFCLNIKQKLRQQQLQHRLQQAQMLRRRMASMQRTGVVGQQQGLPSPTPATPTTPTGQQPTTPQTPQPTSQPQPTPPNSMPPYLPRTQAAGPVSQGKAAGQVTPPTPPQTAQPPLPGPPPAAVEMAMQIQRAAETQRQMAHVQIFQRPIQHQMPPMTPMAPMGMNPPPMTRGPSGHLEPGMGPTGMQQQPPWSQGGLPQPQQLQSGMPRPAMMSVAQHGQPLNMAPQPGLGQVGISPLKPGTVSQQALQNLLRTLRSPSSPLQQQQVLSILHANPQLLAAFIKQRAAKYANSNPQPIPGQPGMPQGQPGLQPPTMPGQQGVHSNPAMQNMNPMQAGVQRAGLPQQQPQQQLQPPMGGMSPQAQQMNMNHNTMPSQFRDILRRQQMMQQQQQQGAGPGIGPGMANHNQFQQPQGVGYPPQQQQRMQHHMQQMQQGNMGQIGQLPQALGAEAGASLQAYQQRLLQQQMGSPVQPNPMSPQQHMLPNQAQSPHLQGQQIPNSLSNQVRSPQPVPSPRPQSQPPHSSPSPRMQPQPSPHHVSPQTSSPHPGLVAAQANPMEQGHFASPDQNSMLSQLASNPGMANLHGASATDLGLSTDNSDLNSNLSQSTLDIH
CBP bromodomain, sequence (Q92793 1085-1192): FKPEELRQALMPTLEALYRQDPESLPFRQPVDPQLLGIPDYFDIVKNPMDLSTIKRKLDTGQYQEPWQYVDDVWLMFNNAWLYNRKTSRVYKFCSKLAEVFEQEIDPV
CBP, sequence (Q92793 whole entry): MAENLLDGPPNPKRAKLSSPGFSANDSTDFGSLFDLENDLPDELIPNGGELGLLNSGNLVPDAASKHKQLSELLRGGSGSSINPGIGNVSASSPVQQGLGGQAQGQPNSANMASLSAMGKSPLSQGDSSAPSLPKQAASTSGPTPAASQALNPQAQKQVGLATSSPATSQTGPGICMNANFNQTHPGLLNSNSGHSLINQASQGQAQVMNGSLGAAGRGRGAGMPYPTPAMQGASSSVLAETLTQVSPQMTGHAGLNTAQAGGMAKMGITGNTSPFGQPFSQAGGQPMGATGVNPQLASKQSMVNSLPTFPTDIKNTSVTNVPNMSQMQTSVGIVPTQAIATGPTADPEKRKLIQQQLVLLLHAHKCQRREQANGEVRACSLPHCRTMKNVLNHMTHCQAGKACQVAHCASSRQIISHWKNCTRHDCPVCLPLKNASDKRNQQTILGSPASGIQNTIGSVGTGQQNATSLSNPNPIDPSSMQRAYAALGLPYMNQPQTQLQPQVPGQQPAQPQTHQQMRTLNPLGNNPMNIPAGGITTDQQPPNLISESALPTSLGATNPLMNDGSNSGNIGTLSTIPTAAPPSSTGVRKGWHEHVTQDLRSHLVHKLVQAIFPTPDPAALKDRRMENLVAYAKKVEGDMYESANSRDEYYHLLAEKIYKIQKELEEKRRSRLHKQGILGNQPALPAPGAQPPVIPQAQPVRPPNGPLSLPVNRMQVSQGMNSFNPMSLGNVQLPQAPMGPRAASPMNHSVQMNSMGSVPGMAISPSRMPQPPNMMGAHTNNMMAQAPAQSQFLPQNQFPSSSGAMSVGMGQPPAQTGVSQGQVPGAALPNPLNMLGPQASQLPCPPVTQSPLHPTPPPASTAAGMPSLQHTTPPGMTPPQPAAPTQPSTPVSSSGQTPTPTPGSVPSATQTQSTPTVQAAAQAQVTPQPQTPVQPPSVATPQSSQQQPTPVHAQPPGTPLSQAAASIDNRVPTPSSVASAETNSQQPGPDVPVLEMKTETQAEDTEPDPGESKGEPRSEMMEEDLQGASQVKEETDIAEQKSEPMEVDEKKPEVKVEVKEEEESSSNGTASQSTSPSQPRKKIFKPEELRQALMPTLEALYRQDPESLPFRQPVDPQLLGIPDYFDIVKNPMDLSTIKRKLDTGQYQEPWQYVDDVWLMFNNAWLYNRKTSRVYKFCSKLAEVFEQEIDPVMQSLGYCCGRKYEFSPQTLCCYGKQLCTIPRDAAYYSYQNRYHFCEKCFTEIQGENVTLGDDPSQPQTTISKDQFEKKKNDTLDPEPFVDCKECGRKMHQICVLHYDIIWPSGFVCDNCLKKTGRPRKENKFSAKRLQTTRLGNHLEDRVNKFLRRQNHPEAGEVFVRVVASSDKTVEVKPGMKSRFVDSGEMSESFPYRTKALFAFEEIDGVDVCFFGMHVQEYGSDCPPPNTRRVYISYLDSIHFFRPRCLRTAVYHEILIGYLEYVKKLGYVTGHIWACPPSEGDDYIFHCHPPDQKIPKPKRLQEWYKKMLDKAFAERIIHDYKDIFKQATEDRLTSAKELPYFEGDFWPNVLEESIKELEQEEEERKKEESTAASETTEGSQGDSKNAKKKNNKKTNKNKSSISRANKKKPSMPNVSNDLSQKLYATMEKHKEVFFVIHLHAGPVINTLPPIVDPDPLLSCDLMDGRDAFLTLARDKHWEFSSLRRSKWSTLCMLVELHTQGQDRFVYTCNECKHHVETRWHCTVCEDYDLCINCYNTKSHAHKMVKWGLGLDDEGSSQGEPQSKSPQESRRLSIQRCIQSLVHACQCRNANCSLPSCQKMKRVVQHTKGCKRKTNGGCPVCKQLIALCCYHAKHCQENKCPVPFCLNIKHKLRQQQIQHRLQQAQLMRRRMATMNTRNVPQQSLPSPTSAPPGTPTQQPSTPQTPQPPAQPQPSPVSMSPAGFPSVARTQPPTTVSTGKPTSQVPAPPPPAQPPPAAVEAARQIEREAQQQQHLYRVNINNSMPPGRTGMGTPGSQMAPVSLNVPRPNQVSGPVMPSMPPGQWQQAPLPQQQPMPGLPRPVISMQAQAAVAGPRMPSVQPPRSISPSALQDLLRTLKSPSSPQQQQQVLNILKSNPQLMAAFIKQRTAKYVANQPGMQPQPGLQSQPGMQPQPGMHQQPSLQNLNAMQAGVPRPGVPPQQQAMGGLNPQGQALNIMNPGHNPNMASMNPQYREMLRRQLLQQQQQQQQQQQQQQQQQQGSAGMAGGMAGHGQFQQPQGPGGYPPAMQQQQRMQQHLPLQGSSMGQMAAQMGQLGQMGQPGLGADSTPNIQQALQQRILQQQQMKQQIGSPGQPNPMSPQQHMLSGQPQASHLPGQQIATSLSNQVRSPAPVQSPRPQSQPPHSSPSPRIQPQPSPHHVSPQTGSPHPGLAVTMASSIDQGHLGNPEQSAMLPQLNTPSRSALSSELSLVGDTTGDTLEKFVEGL

| SMILES | bound to CBP (bromodomain), range (CBP bromodomain) [µM] | general cytotoxicity [1] | CBP degradation (immunoblot) (CBP) | selectivity of P300 and CBP degradation against BRD2/3/4 (BRD2/3/4) | P300 degradation (immunoblot) (EP300) |
| --- | --- | --- | --- | --- | --- |
| Cc1noc(C)c1-c1ccc2nc(-c3ccc(N4CCNCC4)cc3)c(NC3CCCCC3)n2c1.Cl [Int-2] | ~10 | general cytotoxicity |  |  |  |
| C[C@@H]1CC(=O)Nc2cccc(-c3ccc4c(c3)c(-c3cnn(C(=O)CCCCCCCCCNc5cccc6c5C(=O)N(C5CCC(=O)NC5=O)C6=O)c3)nn4C)c2N1 (stereo partly drawn) [Compound 31, 2-(2,6-dioxopiperidin-3-yl)-4-((10-(4-(1-methyl-5-((R)-4-methyl-2-oxo-2,3,4,5-tetrahydro-1H-benzo[b][1,4]diazepin-6-yl)-1H-indazol-3-yl)-1H-pyrazol-1-yl)-10-oxodecyl)amino)isoindoline-1,3-dione] |  |  | noticeable degradation | selective | noticeable degradation |
